The values that follow come from paper PMC8704748, “Repurposing the Trypanosomatidic GSK Kinetobox for the Inhibition of Parasitic Pteridine and Dihydrofolate Reductases” (Pharmaceuticals, 2021).

One assay has as its target T1, TbPTR1 (Trypanosoma brucei brucei, UniProt O76290).
T1 sequence (O76290 1-268): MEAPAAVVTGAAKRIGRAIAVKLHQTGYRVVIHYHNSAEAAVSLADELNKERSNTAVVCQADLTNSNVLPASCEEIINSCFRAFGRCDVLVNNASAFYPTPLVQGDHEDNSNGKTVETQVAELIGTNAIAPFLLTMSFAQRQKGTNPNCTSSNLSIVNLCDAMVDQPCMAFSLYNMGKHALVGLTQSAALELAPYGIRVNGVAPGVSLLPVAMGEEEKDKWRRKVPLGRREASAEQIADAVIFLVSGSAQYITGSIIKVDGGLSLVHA
Description: TbPTR1 inhibition, Cytochrome C coupled spectrophotometric assay. Format: biochemical. The note with it: for inhibition at 10 µM: primary screening, read-out: percentage of inhibition TbPTR1; for IC50: recombinant protein, standard errors within ± 10%.

A further assay deals with TbDHFR-TS (Trypanosoma brucei brucei, UniProt Q27783). Description: TbDHFR-TS inhibition, spectrophotometric DHF reduction assay (dose-response). The settings on record: recombinant TbDHFR-TS; 40, 20 and 10 µM tested; standard errors within ± 10%. Format: biochemical.
Sequence of TbDHFR-TS (Q27783 whole entry): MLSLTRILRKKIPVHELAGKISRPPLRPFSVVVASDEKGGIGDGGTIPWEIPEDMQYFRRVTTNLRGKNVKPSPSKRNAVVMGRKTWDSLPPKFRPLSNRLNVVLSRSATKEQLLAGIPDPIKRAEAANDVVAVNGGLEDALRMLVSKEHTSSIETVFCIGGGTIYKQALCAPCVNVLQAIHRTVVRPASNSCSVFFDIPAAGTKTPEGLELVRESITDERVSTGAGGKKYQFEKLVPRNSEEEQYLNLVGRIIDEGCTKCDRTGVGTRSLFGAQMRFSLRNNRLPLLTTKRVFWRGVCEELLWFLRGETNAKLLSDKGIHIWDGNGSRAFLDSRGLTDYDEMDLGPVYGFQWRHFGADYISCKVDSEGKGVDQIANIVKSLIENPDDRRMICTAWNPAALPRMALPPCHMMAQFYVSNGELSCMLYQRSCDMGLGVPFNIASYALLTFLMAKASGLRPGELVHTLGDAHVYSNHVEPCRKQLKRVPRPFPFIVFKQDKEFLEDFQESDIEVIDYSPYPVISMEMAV
For a further assay, the target named is T2, LmPTR1 (Leishmania major, UniProt Q01782).
T2 sequence (Q01782 1-288): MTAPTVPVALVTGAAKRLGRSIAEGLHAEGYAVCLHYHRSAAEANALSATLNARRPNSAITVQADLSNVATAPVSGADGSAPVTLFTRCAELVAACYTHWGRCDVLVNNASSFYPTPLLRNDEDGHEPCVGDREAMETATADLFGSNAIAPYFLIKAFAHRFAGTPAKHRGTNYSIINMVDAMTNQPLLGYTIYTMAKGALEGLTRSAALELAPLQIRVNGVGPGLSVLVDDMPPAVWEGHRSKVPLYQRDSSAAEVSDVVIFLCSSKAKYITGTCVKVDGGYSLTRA
Description: LmPTR1 inhibition, Cytochrome C coupled spectrophotometric assay. The format is biochemical. The note with it: for IC50: recombinant protein, standard errors within ± 10%; for inhibition at 10 µM: primary screening, read-out: percentage of inhibition LmPTR1.

Another assay has as its target LmDHFR-TS (Leishmania major, UniProt P07382). Description: LmDHFR-TS inhibition, spectrophotometric DHF reduction assay (dose-response). The note with it: recombinant LmDHFR-TS; 40, 20 and 10 µM tested; standard errors within ± 10%. Format: biochemical.
For the next assay, the system named is T. brucei. The arrangement: method as in PMID 25740547. The settings on record: parasite growth inhibition, data from open resource GSK database ref 21, cited from earlier work.
A further assay concerns L. donovani. Details: method as in PMID 25740547. The settings on record: parasite growth inhibition, data from open resource GSK database ref 21, cited from earlier work.
In a further assay the test system is T. cruzi. Details: method as in PMID 25740547. The note with it: parasite growth inhibition ref 21; cited from earlier work.

“Also recorded” adds a separate entry of the source. Read-outs that look alike come from different tables or passages of the source. Where only a bound is given, the exact number is not on record here.

Sequence of LmDHFR-TS (P07382 whole entry): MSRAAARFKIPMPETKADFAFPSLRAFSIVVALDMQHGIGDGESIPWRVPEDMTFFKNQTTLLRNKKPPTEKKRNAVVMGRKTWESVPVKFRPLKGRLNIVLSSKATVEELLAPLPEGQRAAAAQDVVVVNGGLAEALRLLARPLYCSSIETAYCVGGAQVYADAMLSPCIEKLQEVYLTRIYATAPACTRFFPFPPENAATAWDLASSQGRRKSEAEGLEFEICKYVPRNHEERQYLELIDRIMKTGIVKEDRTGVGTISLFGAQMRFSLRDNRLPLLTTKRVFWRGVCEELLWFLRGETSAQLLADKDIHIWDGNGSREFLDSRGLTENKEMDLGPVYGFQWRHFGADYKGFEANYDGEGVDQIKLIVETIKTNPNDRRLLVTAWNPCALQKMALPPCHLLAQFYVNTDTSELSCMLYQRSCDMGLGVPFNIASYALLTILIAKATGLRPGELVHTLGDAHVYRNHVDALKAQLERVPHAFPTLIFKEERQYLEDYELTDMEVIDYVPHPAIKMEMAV

`Cc1nc2c(-c3ncn[nH]3)cc(NC(=O)Cc3ccccc3)cn2c1C` [TCMDC-143459]: the inhibition at 10 µM on TbPTR1 worked out at 51%. Also, the IC50 at TbPTR1 is 9.8 µM; on TbDHFR-TS it was greater than 40 µM; at LmPTR1, greater than 40 µM; at LmDHFR-TS, greater than 40 µM. The values for the 50% effective concentration (EC50) in the assay with T. brucei and in the assay on L. donovani were 6.6 µM and 0.5 µM, respectively.

For the compound `COc1ccc(C(C)N(C)c2ncc3c(N)nc(N)nc3n2)cc1F` (centres unmarked) [TCMDC-143298], the IC50 on TbPTR1 is 8.1 µM; on TbDHFR-TS it was greater than 40 µM; on LmPTR1 it was 6 µM; on LmDHFR-TS, greater than 40 µM. For the same compound, the “IC50 TbDHFR” value at TbDHFR-TS was “did not show any activity”. In addition, the “IC50 LmDHFR” value at LmDHFR-TS is “did not show any activity”. The EC50 in the assay on T. brucei was 8.8 µM; in the assay with L. donovani it was 10.8 µM.

As to `Cc1ccc2c(c1)-c1onc(C(=O)N3CCCC[C@H]3c3cccnc3)c1CO2` [TCMDC-143191], on TbPTR1, the inhibition at 10 µM was determined as 51%. Also, the IC50 at TbPTR1 is 9.8 µM; at TbDHFR-TS, greater than 40 µM; on LmPTR1, 38.5 µM; at LmDHFR-TS it was greater than 40 µM. Further, the EC50 in the assay on T. brucei was 39.8 µM; in the assay with L. donovani, greater than 40 µM.

In the case of `CCCc1nc2nc(N)nc(N)c2cc1CC` [TCMDC-143606], the IC50 on TbPTR1 is roughly 6 µM; at TbPTR1 (listed as 143606) it was 6.4 µM; on TbDHFR-TS, greater than 40 µM; at LmPTR1, roughly 6 µM; on LmPTR1 (listed as 143606), 6.8 µM; on LmDHFR-TS it was 19.4 µM. For the same compound, the EC50 is roughly 20 µM with T. brucei, 22.5 µM in the assay on T. brucei (listed as 143606), roughly 20 µM in the assay with L. donovani and 27.2 µM with L. donovani (listed as 143606).

For `COc1ccc(Oc2ccc(C(C)N(C)c3ncc4c(N)nc(N)nc4n3)cc2)cc1` (centres unmarked) [TCMDC-143295], the 50% inhibitory concentration (IC50) at TbPTR1 was 7.9 µM; at TbDHFR-TS it was greater than 40 µM; at LmPTR1 it was 6.7 µM; at LmDHFR-TS it was 16.6 µM. Also, the “IC50 TbDHFR” value at TbDHFR-TS is given as “not active”. Moreover, in the assay on L. donovani, the 50% effective concentration (EC50) was 0.06 µM.

For `N#Cc1cccc(Nc2nccc(N3CCC(NS(=O)(=O)c4cccc(C#N)c4)CC3)n2)c1` [TCMDC-143249], the IC50 on TbPTR1 was 13.5 µM; on TbDHFR-TS, greater than 40 µM; at LmPTR1 it was 6 µM; at LmDHFR-TS, greater than 40 µM. In addition, at TbDHFR-TS, the “IC50 TbDHFR” value was “inactive; also recorded: no inhibition”. The EC50 is 4.2 µM in the assay with T. cruzi, 6.3 µM in the assay on T. brucei and 5.6 µM in the assay with L. donovani. For the same compound, the “IC50 LmDHFR” value at LmDHFR-TS was “inactive; also recorded: no inhibition”.

As for `CC(c1cc(Cl)cc(Cl)c1)N(C)c1ncc2c(N)nc(N)nc2n1` (centres unmarked) [TCMDC-143297], the half-inhibitory concentration (IC50) is 9.8 µM at TbPTR1, 11.6 µM at TbDHFR-TS, 5.7 µM on LmPTR1 and 20.1 µM at LmDHFR-TS. Further, the concentration giving a half-maximal response (EC50) with T. brucei was 35.7 µM; in the assay on L. donovani it was 0.6 µM.

With `CN(Cc1cc2ccccc2s1)c1ncc2c(N)nc(N)nc2n1` [TCMDC-143232], the IC50 is 10.9 µM at TbPTR1, greater than 40 µM at TbDHFR-TS, 5.9 µM at LmPTR1 and 24.4 µM at LmDHFR-TS. The “IC50 TbDHFR” value on TbDHFR-TS was “not active”. Moreover, the EC50 in the assay with T. brucei is 28.4 µM; in the assay on L. donovani, 29.5 µM.

On to `Cc1cc(-c2ccc3ccccc3c2)nc2nc(N)nc(N)c12` [TCMDC-143607], for which the IC50 is 7.3 µM on TbPTR1, greater than 40 µM on TbDHFR-TS, 8.1 µM at LmPTR1 and greater than 40 µM on LmDHFR-TS. For the same compound, the EC50 is 25.8 µM with T. brucei and 2.7 µM in the assay with L. donovani.

Take `COc1ccccc1-c1c(C)[nH]c2nc(N)nc(C)c12` [TCMDC-143610]: the IC50 on TbPTR1 is 7.3 µM; at TbDHFR-TS, 38.2 µM; on LmPTR1 it was 9.3 µM; at LmDHFR-TS, 40 µM. For the same compound, the concentration giving a half-maximal response (EC50) in the assay on T. brucei was 32.5 µM; with L. donovani it was 17.9 µM.

For `O=C1NCCn2ccc(Nc3nc(N[C@H]4CC[C@H](O)CC4)ncc3Cl)c21` [TCMDC-143386], the IC50 is 35 µM on TbPTR1, greater than 40 µM at TbDHFR-TS, 6.7 µM on LmPTR1 and 25.8 µM at LmDHFR-TS. The inhibition at 10 µM on LmPTR1 amounted to 75%. The figures for the 50% effective concentration (EC50) in the assay with T. brucei and in the assay with L. donovani were 0.6 µM and 1.4 µM, respectively.

As to `Cc1cc(N(C)C)nc2ccc(Cc3cnc(N)nc3N)cc12` [TCMDC-143611], the half-inhibitory concentration (IC50) was 8.9 µM on TbPTR1, greater than 40 µM on TbDHFR-TS, 9.8 µM on LmPTR1 and greater than 40 µM on LmDHFR-TS. In addition, the 50% effective concentration (EC50) in the assay with T. brucei was 5 µM; in the assay with L. donovani, greater than 40 µM.

On to `CCN(Cc1nc2ccc(C(=O)N3CCN(c4ncccn4)CC3)cc2[nH]1)C1CCCc2cccnc21` (centres unmarked) [TCMDC-143518], for which the IC50 was 33.3 µM on TbPTR1, greater than 40 µM on TbDHFR-TS, 8.5 µM at LmPTR1 and 25 µM at LmDHFR-TS. The inhibition at 10 µM at LmPTR1 amounted to 59%. The EC50 in the assay on T. brucei was 3.8 µM; in the assay on L. donovani, 3.5 µM.

`CC(c1ccc2c(c1)CCCC2)N(C)c1ncc2c(N)nc(N)nc2n1` (centres unmarked) [TCMDC-143296]: the IC50 on TbPTR1 stood at 8.6 µM; at TbDHFR-TS, 9.7 µM; on LmPTR1, 6.5 µM; on LmDHFR-TS, 6.9 µM. In addition, the values for the half-maximal effective concentration (EC50) in the assay with T. brucei and in the assay on L. donovani were 14.2 µM and 1.8 µM, respectively.

As a reminder, the inhibition is the relative decrease from the control value, in per cent. By IC50 is commonly meant the concentration needed to halve the response being measured. The term EC50 denotes the concentration needed to bring the measured effect to its halfway point.
